In PMC3945760, “Antioxidant action and cytotoxicity on HeLa and NIH-3T3 cells of new quercetin derivatives” (Interdisciplinary Toxicology, 2013):
Read-outs that look alike come from different tables or passages of the source.

How the values were obtained:
[1] = system: non-cancer murine fibroblast cells NIH-3T3; assay: MTT assay on NIH-3T3 cells; type: cell-based; conditions: for IC50: MTT, 72 h drug exposure, read-out: IC50 ± SD NIH-3T3 cells
Method: (§1) The human tumor cell line HeLa and murine fibroblast NIH-3T3 cells were obtained from the ATCC (Rockville, MD, USA). The cells grown at 37 °C in humidified 5%-CO2 and 95%-air atmosphere were in Dulbecco's modified eagle medium supplemented with 10% (vol/vol) inactivated bovine serum, penicillin G and streptomycin (100 mg/l). Before a uniform monolayer of cells was formed, cells were freed from the surface of the culture flask by a 0.25% solution of trypsin and were subcultivated two to three times a week. The cells were plated on the cultivation flask (surface 25 cm^2) at a density of 4×10^4 HeLa cells and 6×10^4 NIH-3T3 cells per ml medium and incubated for 24 h prior to the experiments.
(§2) The cytotoxic effect of the compounds prepared on cells was detected in vitro using the mitochondrial cytotoxic test according to Jantová et al. ([2010]) with modifications. Cell viability was evaluated using thiazolyl blue tetrazolium bromide (MTT), which indicates the metabolic activity of cells. The experiment was performed in 96-well microplates. The cells were seeded at a density of 3.5×10^3 HeLa or NIH-3T3 cells per well. Samples were dissolved in DMSO (stock solution 10 mM) and subsequently diluted in medium to the final concentration of 5 µM to 100 µM (concentration of DMSO 0.5%) and after 24 h they were added to the cells. Microplates were cultivated for 72 h in thermostat at 37 °C and 5% CO2 atmosphere. After incubation thiazolyl blue tetrazolium bromide (3.33 mg/ml phosphate buffered saline, pH=7.4) was pipetted to each well and left to incubate for further two hours. Then the medium with MTT solution was removed. Formazan crystals in viable cells were dissolved in the lysis solution (4 mM HCl and 0.1% Nonidet P40 in ethanol). Microplates were shaken 15 min at 1500 rpm. Absorbance was measured at 540 nm and reference wavelength at 740 nm (Multiskan FC, Thermo Scientific, DE). Each value is the mean of 6 wells with standard deviation. Inhibition activity was expressed as percentages of control with DMSO. For each compound IC50 values were calculated by SigmaPlot.

[2] = system: human cervical cancer cells HeLa; assay: MTT assay on HeLa cells; type: cell-based; conditions: for IC50: MTT, 72 h drug exposure, read-out: IC50 ± SD HeLa cells
Method: as §1, §2

[3] = Ferric reducing antioxidant power (FRAP); conditions: 10 min, 37 °C, read-out: IC50 ± SD FRAP
Method: The antioxidant reducing power of the derivatives tested was performed using the FRAP method according to Benzie and Strain ([1996]). Ferric to ferrous ion reduction at low pH causes the formation of a colored ferrous-tripyridyltriazine complex. Samples diluted in methanol (200 µM to 12.5 µM) and FRAP reagent reacted for 10 min at 37 °C in 96-well microplates. At the end, absorbance changes were measured spectrophotometrically at 593 nm (Multiskan FC, Thermo Scientific, DE). Each value is the mean of 5 wells with standard deviation. Inhibitory concentrations (IC50) were expressed as the concentration of the derivative tested reducing one half of ferric complexes and were calculated by SigmaPlot.

[4] = Scavenging of DPPH radical; conditions: 10 min, room temperature, methanol, read-out: IC50 ± SD DPPH
Method: We used the simple spectrophotometric method according to Yen and Chen ([1995]) to determine the ability to scavenge free radicals. Binding of DPPH? radical by compounds causes its decolorization. The compounds tested were diluted in methanol to the final concentration 200 µM to 12.5 µM. Trolox served as standard antioxidant control. Reactions of samples with DPPH? solution were performed in 96-well plates and lasted for 10 min at room temperature in the dark. After that, the absorbance changes were measured spectrophotometrically at 520 nm (Multiskan FC, Thermo Scientific, DE). Each value is the mean of 5 wells with standard deviation. Inhibitory concentrations (IC50) were expressed as the concentration of the derivative tested to react with one half of the DPPH? and were calculated by SigmaPlot.

[5] = system: HeLa cells; assay: Light microscopy of HeLa cells; type: cell-based, human; conditions: 25 µM and 50 µM, 72 h
Method: (§3) The cytotoxic action of the effective chloronaphtoquinone quercetin 5 was further observed also by light microscopy after 72 h of HeLa and NIH-3T3 cells cultivation. […] On the other hand, a significant decrease in cell number was found in cells treated with both concentrations studied (25 µM and 50 µM).
(§4) We monitored prepared quercetin derivatives for their cytotoxic action on human cervical cancer cells HeLa in the concentration range from 5 µM to 100 µM. For comparison non-cancer murine fibroblast cells NIH-3T3 were also evaluated. The MTT test and light microscopy were used for cytotoxicity measurements.

[6] = system: NIH-3T3 cells; assay: Light microscopy of NIH-3T3 cells; type: cell-based, murine; conditions: NIH-3T3, 25 µM and 50 µM, 72 h
Method: as §3, §4

IC50 [2] [µM]	IC50 [3] [µM]	IC50 [4] [µM]	SMILES	IC50 [1] [µM]	IC50 ([1]; Mus musculus, NIH3T3, 72 h) [µM]	inhibition at 25 µM ([1]; Mus musculus, NIH3T3, NIH-3T3, 25 µM, 72 h, read-out: Inhibition of cell proliferation) [%]	inhibition at 50 µM ([1]; Mus musculus, NIH3T3, NIH-3T3, 50 µM, 72 h, read-out: Inhibition of cell proliferation) [%]	inhibition at 100 µM ([1]; Mus musculus, NIH3T3, NIH-3T3, 100 µM, 72 h, read-out: Inhibition of cell proliferation) [%]	inhibition at 25 µM ([2]; 25 µM, 72 h, read-out: Inhibition of cell proliferation) [%]	inhibition at 50 µM ([2]; 50 µM, 72 h, read-out: Inhibition of cell proliferation) [%]	inhibition at 100 µM ([2]; 100 µM, 72 h, read-out: Inhibition of cell proliferation) [%]	morphologic changes [5]	morphologic changes [6]
> 50	> 200	> 200	CC(C)=CCOc1ccc(/C=C/C(=O)Oc2cc(O)c3c(=O)c(O)c(-c4ccc(OC(=O)/C=C/c5ccc(OCC=C(C)C)c(OCC=C(C)C)c5)c(OC(=O)/C=C/c5ccc(OCC=C(C)C)c(OCC=C(C)C)c5)c4)oc3c2)cc1OCC=C(C)C [compound 7]	> 50	> 100	–	–	–	–	–	–	–	–
19.5 ± 0.8	112 ± 7.3	63.7 ± 2.6	CC(=O)OC1CC(OC(C)=O)(C(=O)Oc2cc(O)c3c(=O)c(O)c(-c4ccc(OC(=O)C5(OC(C)=O)CC(OC(C)=O)C(OC(C)=O)C(OC(C)=O)C5)c(O)c4)oc3c2)CC(OC(C)=O)C1OC(C)=O (stereo not shown) [compound 9, di(tetraacetylquinoyl) quercetin]	–	16.1 ± 0.4	–	–	–	–	–	–	–	–
> 50	> 200	> 200	CC(=O)Oc1ccccc1C(=O)Oc1ccc(-c2oc3cc(O)cc(OC(=O)c4ccccc4OC(C)=O)c3c(=O)c2OC(=O)c2ccccc2OC(C)=O)cc1OC(=O)c1ccccc1OC(C)=O [compound 12, tetra(acetylsalicyloyl) quercetin]	–	> 50	–	–	–	–	–	–	–	–
> 50	183 ± 13.5	82.8 ± 3.3	COc1ccc(/C=C/C(=O)Oc2ccc(-c3oc4cc(O)cc(O)c4c(=O)c3O)cc2OC(=O)/C=C/c2ccc(OC)c(OCC=C(C)C)c2)cc1OCC=C(C)C [compound 14]	–	> 50	–	–	–	–	–	–	–	–
16.5 ± 1.5	> 200	35.4 ± 2.7	CC(=O)Oc1ccc(/C=C/C(=O)Oc2ccc(-c3oc4cc(O)c(O)cc4c(=O)c3OC(=O)/C=C/c3ccc(OC(C)=O)c(OC(C)=O)c3)cc2OC(=O)/C=C/c2ccc(OC(C)=O)c(OC(C)=O)c2)cc1OC(C)=O [compound 11]	–	10.6 ± 0.1	–	–	–	–	–	–	–	–
> 50	> 200	161 ± 13.2	CC(C)=CCOc1ccc(/C=C/C(=O)Oc2cc(O)c3c(=O)c(O)c(-c4ccc(OC(=O)/C=C/c5ccc(OCC=C(C)C)c(OCC=C(C)C)c5)c(O)c4)oc3c2)cc1OCC=C(C)C [compound 8]	> 50	> 100	–	–	–	–	–	–	–	–
> 50	> 200	> 200	COc1ccc(/C=C/C(=O)Oc2cc(-c3oc4cc(O)cc(O)c4c(=O)c3O)ccc2O)cc1OC(C)=O [compound 15]	–	> 50	–	–	–	–	–	–	–	–

The remaining lines, values behind:

SMILES	IC50 [2] [µM]	IC50 [3] [µM]	IC50 [4] [µM]	IC50 [1] [µM]	IC50 ([1]; Mus musculus, NIH3T3, 72 h) [µM]	inhibition at 25 µM ([1]; Mus musculus, NIH3T3, NIH-3T3, 25 µM, 72 h, read-out: Inhibition of cell proliferation) [%]	inhibition at 50 µM ([1]; Mus musculus, NIH3T3, NIH-3T3, 50 µM, 72 h, read-out: Inhibition of cell proliferation) [%]	inhibition at 100 µM ([1]; Mus musculus, NIH3T3, NIH-3T3, 100 µM, 72 h, read-out: Inhibition of cell proliferation) [%]	inhibition at 25 µM ([2]; 25 µM, 72 h, read-out: Inhibition of cell proliferation) [%]	inhibition at 50 µM ([2]; 50 µM, 72 h, read-out: Inhibition of cell proliferation) [%]	inhibition at 100 µM ([2]; 100 µM, 72 h, read-out: Inhibition of cell proliferation) [%]	morphologic changes [5]	morphologic changes [6]
Cc1c(C)c2c(c(C)c1O)CCC(C)(C(=O)O)O2 (stereo not shown) [T, trolox, reference compound]	34.7 ± 1	39.5 ± 2.1	34.7 ± 1	–	39.5 ± 2.1	–	–	–	–	–	–	–	–
O=C1C(Cl)=C(Oc2cc(-c3oc4cc(O)cc(O)c4c(=O)c3O)ccc2O)C(=O)c2ccccc21 [compound 5, chloronaphtoquinone quercetin]	13.2 ± 1.6	64.5 ± 0.6	28.4 ± 3	–	16.5 ± 0.1	71.9	85.2	93.7	94.5	97.9	97.7	cell rounding and cell separation from the cultivation surface	cell rounding and cell separation from the cultivation surface
CC(C)(CCl)C(=O)Oc1cc(OC(=O)C(C)(C)CCl)c2c(=O)c(O)c(-c3ccc(O)c(OC(=O)C(C)(C)CCl)c3)oc2c1 [compound 3]	65 ± 4.5	> 200	> 200	–	20.3 ± 1.9	–	–	–	–	–	–	–	–
O=c1c(O)c(-c2ccc(O)c(O)c2)oc2cc(O)cc(O)c12 [Q, quercetin]	35.5 ± 1.1	12.5 ± 0.9	16.2 ± 1.1	–	20.9 ± 0.9	–	–	–	–	–	–	–	–
CC(C)(CCl)C(=O)Oc1cc(-c2oc3cc(O)cc(O)c3c(=O)c2O)ccc1O [compound 2]	43.4 ± 2.8	12.5 ± 0.3	27 ± 0.2	–	26.8 ± 0.5	–	–	–	–	–	–	–	–
CC(=O)Oc1cc(OC(C)=O)c2c(=O)c(OC(C)=O)c(-c3ccc(OC(C)=O)c(OC(C)=O)c3)oc2c1 [compound 6, pentaacetyl quercetin]	29.6 ± 1.9	> 200	> 200	–	15.5 ± 0.7	–	–	–	–	–	–	–	–
CC1CN(CC(O)COc2cc(O)cc3oc(-c4ccc(O)c(O)c4)c(O)c(=O)c23)CC(C)O1 (stereo not shown) [compound 4]	> 100	> 200	> 200	–	> 100	–	–	–	–	–	–	–	–
O=C1c2c(O)cc(O)cc2OC2(c3ccc(O)c(O)c3)Oc3ccc(-c4oc5cc(O)cc(O)c5c(=O)c4O)cc3OC12O (stereo not shown) [compound 1, diquercetin]	64 ± 7.5	103 ± 6.2	58.8 ± 6.2	–	32.9 ± 1.1	–	–	–	–	–	–	–	–
